# Paper PMC4114559, “Pigment Dispersing Factor Regulates Ecdysone Biosynthesis via Bombyx Neuropeptide G Protein Coupled Receptor-B2 in the Prothoracic Glands of Bombyx mori” (PLoS ONE, 2014)
# “Also recorded” adds a separate entry of the source. Numbered stars: 1 amine (or outer) side, 2 acyl side, 3 side chain; on linkers, the order of the positions; unused ones are H or OH. Bridge positions count the residues as written; N and C are the ends. Square brackets hold non-standard residues; d marks the D form. Ends that are not written are not given here. Peptide text beside a SMILES is read from it. I, II: the chains in the order shown. Actinocin(9to1) = Cc1c2oc3c(C)ccc(C(=O)[*:1])c3nc-2c(C(=O)[*:2])c(N)c1=O; NMeV = CN[C@H](C(=O)O)C(C)C; Sar = CNCC(=O)O
# Experiments:
# PGs of B. mori = test: Effect of inhibitors on induced ecdysone biosynthesis in cultured PGs; type: cell-based, Bombyx mori; details: 15 min pre-treatment, 3 hours; for effect of inhibitor on PDF-induced ecdysone biosynthesis: n = 10
# Procedure: (§1) Dissected PGs were rinsed with Grace's insect culture medium (Gibco) and pre-cultured individually in 100 µl medium in 96-well plates (BD Falcon) at 25°C for 30 min. To evaluate the effect of extracellular Ca^2+ on ecdysone biosynthesis, lepidopteran saline and lepidopteran saline using NaCl as a replacement for CaCl2 were used. For the pharmacological analysis, the PG was pre-treated with the inhibitor for 15 min during the pre-culture period. Following this treatment, the PG was cultured in the desired conditions for the desired period (Ecdysone assay: 3 hours; cAMP assay: 30 min; and Protein phosphorylation assay: 15 min). Actinomycin D, H-89 and cycloheximide (CHX) were purchased from Sigma; Rapamycin was purchased from Santa Cruz Biotechnology; and LY294002 was purchased from Merck. H-89 was dissolved in water. The other inhibitors were dissolved in DMSO. A 1% volume of the appropriate inhibitor was added to the culture medium.
# Prior to ecdysteroids extraction, the 100 µl of cultured medium was diluted with equal volume of MilliQ water. After that, 400 µl of 1-butanol was added to the sample, vortexed for 3 min and centrifuged at 1,000×g for 10 min at 4°C. The 1-butanol phase was transferred to a new tube, and the solvent was evaporated using a centrifugal concentrator. The dried samples were re-dissolved in 50 µl of pure methanol for the following analysis. Quantification of ecdysteroids using LC-MS/MS was performed as previously described with some modifications. Ecdysteroids were separated by reverse-phase HPLC using a PEGASIL C8 column (3 µm, 2×100 mm, Senshu-pak, Senshu-kagaku) with gradient elution of acetonitrile (ACN)/water at a flow rate of 0.2 mL min^−1 (0–3 min (ACN = 10–75%), 3–20 min (75–85%), 20–25 min (100%)), on a Prominence UFLC system (Shimadzu). The separated ecdysteroids were quantified with the QTRAP5500 MS/MS system (AB SCIEX) using MRM mode. For the quantitative analysis, standard curves were generated with concentrations of 0.98–1000 ng/ml.
# Because PDF stimulated the increase in intracellular cAMP levels in the PGs, the activation of PKA is likely involved in the PDF signaling pathway. One of the pathways downstream of active PKA is cAMP response element-binding protein (CREB)-mediated transcriptional regulation. First, we evaluated the effect of PDF on the transcript level of known ecdysone biosynthetic enzymes (Nvd, Nm-g, Spo, Phm, Dib and Sad) using Q-PCR. […] Therefore, de novo transcription was not required for PDF-mediated ecdysone biosynthesis for at least 3 hours. […]
# (§2) Figure 4 Signaling pathways involved in PDF-induced ecdysone biosynthesis. […] The transcript levels of nvd, nm-g, spo, phm, dib and sad were quantified with Q-PCR. […] Statistically significant differences were evaluated by Student's t-test (***P<0.001, **P<0.01). […]
# 4E-BP = test: p-4E-BP level in cultured PGs (Western blot); type: cell-based, Bombyx mori; details: PI3K inhibitor LY294002 50 µM; immunoblotting
# Procedure: as §1, with “Actinomycin D, H-89 and cycloheximide (CHX) were purchased from Sigma; Rapamycin was purchased from Santa Cruz Biotechnology; and LY294002 was purchased from Merck. H-89 was dissolved in water. The other inhibitors were dissolved in DMSO. A 1% volume of the appropriate inhibitor was added to the culture medium.” left out
# Dissected PGs were pre-cultured in Grace's culture medium for 30 min, then cultured with or without PDF or PTTH for 15 min. The cultured PGs were sonicated in 50 mM Tris-HCl (pH 6.8) with protease inhibitor cocktail (Complete, Roche) and phosphatase inhibitor cocktail (Wako), lysed in 1x SDS sample buffer excluding 2-mercaptoethanol (2ME) and bromophenol blue (BPB), and the protein concentration was measured using the BCA protein assay kit (Pierce). […]
# as §2
# PGs = details: cited from earlier work
# Text: In many cases, a single hormone has multiple functions regulating many physiological phenomena. Thus, both the regulation of receptor expression in the target tissue and the regulation of hormone release are important for the hormone to only affect the target tissue at the appropriate time. In the case of PTTH, the titer of the hormone in the hemolymph is clearly correlated with the ecdysteroid titer ... || In insects, neuropeptide hormones affect the target tissue via humoral and neuronal pathways. […] The increase in intracellular cAMP is thought to be regulated by Ca^2+ signaling in the PTTH signaling pathway, [37]. […] PDF sig ... || (+ 1 further places)
compound,measurement,setting,value
"Cc1c2oc3c(C)ccc(C(=O)N[C@@H]4C(=O)N[C@H](C(C)C)C(=O)N5CCC[C@H]5C(=O)N(C)CC(=O)N(C)[C@@H](C(C)C)C(=O)O[C@@H]4C)c3nc-2c(C(=O)N[C@@H]2C(=O)N[C@H](C(C)C)C(=O)N3CCC[C@H]3C(=O)N(C)CC(=O)N(C)[C@@H](C(C)C)C(=O)O[C@@H]2C)c(N)c1=O [actinomycin D] (I: T[dV]P[Sar][NMeV] / II: T[dV]P[Sar][NMeV]; ester I:1-I:C, II:1-II:C; linker I:N-II:N via Actinocin(9to1))",effect of inhibitor on PDF-induced ecdysone biosynthesis,PGs of B. mori; transcription inhibitor ActD 10 µM,did not suppress PDF-induced ecdysone biosynthesis
"O=c1cc(N2CCOCC2)oc2c(-c3ccccc3)cccc12 [LY294002, reference compound]",effect of inhibitor on phosphorylation of 4E-BP induced by PDF and PTTH,4E-BP,clearly suppressed the ecdysone biosynthesis and phosphorylation of 4E-BP induced by PDF and PTTH
same,effect of inhibitor on ecdysone biosynthesis induced by PDF and PTTH,"PGs of B. mori; PI3K inhibitor LY294002 50 µM, n = 3 and 4",clearly suppressed the ecdysone biosynthesis
"CCCC(=O)Nc1ncnc2c1ncn2[C@@H]1O[C@@H]2COP(=O)(O)O[C@H]2[C@H]1OC(=O)CCC [dbcAMP, dibutyryl cyclic AMP, reference compound]",ecdysone biosynthesis in vitro (literature),"PGs; cell-permeable cAMP analog, in vitro, ref [27], [37]",can induce ecdysone biosynthesis in vitro
same,effect of a transcription inhibitor on PTTH- and dbcAMP-induced ecdysone biosynthesis (literature),PGs; ref [39],ecdysone biosynthesis was suppressed by a transcription inhibitor
"diapause hormone: neuronal pathway-mediated tropic hormone (TDMKDESDRGAHSERGALWFGPRL; ends and bridges not checked; UniProt P09971 24-47, looked up) [reference compound]",EC50,"PGs; neuronal pathway-mediated tropic hormone, ref [32], read-out: EC50 of tropic hormone (literature)",270 nM
"C[C@@H]1C[C@@H]([C@H](O)CC2CC(=O)NC(=O)C2)C(=O)[C@@H](C)C1 [CHX, cycloheximide]",effect of inhibitor on PDF-induced ecdysone biosynthesis,PGs of B. mori; translation inhibitor CHX 0.2 mM,clearly inhibited ecdysone biosynthesis
O=S(=O)(NCCNC/C=C/c1ccc(Br)cc1)c1cccc2cnccc12 [H-89],effect of inhibitor on PDF-induced ecdysone biosynthesis,PGs of B. mori; PKA inhibitor H-89 0.1 mM,clearly inhibited ecdysone biosynthesis; also recorded: inhibited PDF-induced ecdysone biosynthesis
